Marks after values point to notes of the source that are not given here.
Key:
Format in all cases: in vivo
Settings in all cases: 100 = 100% disease control
[1] = tested on: Botrytis cinerea; test: Test C: tomato Botrytis on tomato seedlings, sprayed the day before inoculation, visual disease rating
How it was run: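 Tomato seedlings were sprayed until run-off with test suspensions in acetone/water (50/50) carrying 250 ppm polyhydric alcohol ester surfactant. Standard dose was 200 ppm, with 40 ppm for marked entries.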

[2] = tested on: Alternaria solani; test: Test D: tomato early blight, sprayed the day before inoculation, visual disease rating
How it was run: (§1)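 200 ppm run-off spray (500 g/ha equivalent); * = 40 ppm. Vehicle: acetone/water 50/50, 250 ppm Trem® 014.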

[3] = tested on: Septoria nodorum; test: Test F: wheat glume blotch on wheat seedlings, sprayed the day before inoculation, visual disease rating
How it was run: as §1

[4] = tested on: Septoria tritici; test: Test G: wheat leaf blotch on wheat seedlings, sprayed the day before inoculation, visual disease rating
How it was run: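 Compounds dissolved in acetone (3% of final volume), then suspended in 50/50 acetone/water with 250 ppm Trem® 014 and sprayed to run-off on seedlings at 200 ppm (≈500 g/ha) or 40 ppm where marked. Inoculation with spores followed next day; visual rating after 48 h saturated at 24° C plus 19 days at 20° C.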

[5] = tested on: Puccinia recondita f. sp. tritici; test: Test H: wheat leaf rust, test suspension sprayed after inoculation of wheat seedlings, visual disease rating
How it was run: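 Wheat seedlings inoculated with P. recondita spores, held 24 h saturated at 20 °C, then 2 days in growth chamber at 20 °C; compound suspension (acetone/water with Trem 014) sprayed to run-off afterwards. Rated visually; 200 ppm (≈500 g/ha) unless marked *, which denotes 40 ppm.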

[6] = tested on: Puccinia recondita f. sp. tritici; test: Test I: wheat leaf rust on wheat seedlings, sprayed the day before inoculation, visual disease rating
How it was run: as §1

[7] = tested on: Erysiphe graminis f. sp. tritici; test: Test J: wheat powdery mildew on wheat seedlings, sprayed the day before inoculation, visual disease rating
How it was run: as §1

[8] = 200 ppm, 0 = no control relative to controls

Structure (SMILES) | Test C disease control rating ([1]; 40 ppm (marked *)) | Test D disease control rating ([2]; 40 ppm (marked *)) | Test F disease control rating ([3]; 40 ppm (marked *)) | Test G disease control rating ([4]; 40 ppm (marked *)) | Test H disease control rating ([5]; 40 ppm (marked *)) | Test I disease control rating ([6]; 40 ppm (marked *)) | Test J disease control rating ([7]; 40 ppm (marked *)) | Test C disease control rating [1, 8] [%] | Test D disease control rating [2, 8] [%] | Test F disease control rating [3, 8] [%] | Test G disease control rating [4, 8] [%] | Test H disease control rating [5, 8] [%] | Test I disease control rating [6, 8] [%] | Test J disease control rating [7, 8] [%] | further results
Cc1ccc(-n2c(Cl)nc(Br)c2-c2c(F)ccc(F)c2F)cc1 [compound 465] | 100* % | 99* % | 0* % | 88* % | 0* % | 99* % | 99* % | – | – | – | – | – | – | – | –
Fc1ccc(-n2c(Br)nc(Br)c2-c2ccc(Cl)cc2)c(Cl)c1 [compound 306] | – | – | – | – | – | – | – | 99 | 96 | 0 | 94 | 6 | 91 | 99 | –
Fc1cccc(F)c1-c1c(Br)nc(CCBr)n1-c1ccc(Cl)cc1 [Compound 475, 4-bromo-2-(bromoethyl)-1-(4-chlorophenyl)-5-(2,6-difluorophenyl)-1H-imidazole] | – | – | – | – | – | – | – | – | – | – | – | – | – | – | pest or weed control at 200 ppm ([1]; Botrytis cinerea, 120 h, 200 ppm, 0 = no control relative to controls): 98%; pest or weed control at 200 ppm ([2]; Alternaria solani, 168 h, 200 ppm, 0 = no control relative to controls): 26%; pest or weed control at 200 ppm ([3]; Parastagonospora nodorum, 264 h, 200 ppm, 0 = no control relative to controls): 0%; pest or weed control at 200 ppm ([4]; Zymoseptoria tritici, 504 h, 200 ppm, 0 = no control relative to controls): 92%; pest or weed control at 200 ppm ([5]; Puccinia recondita, 96 h, 200 ppm, 0 = no control relative to controls): 0%; pest or weed control at 200 ppm ([6]; Puccinia recondita, 168 h, 200 ppm, 0 = no control relative to controls): 87%; pest or weed control at 200 ppm ([7]; Blumeria graminis, 168 h, 200 ppm, 0 = no control relative to controls): 42%
COc1cc(F)c(-c2c(Cl)nc(Br)n2-c2ccc(C)cc2F)c(F)c1 [compound 654] | 100* % | 99* % | 91* % | 98* % | 100* % | 99* % | 100* % | – | – | – | – | – | – | – | –
Fc1cc(-n2c(Cl)nc(Cl)c2-c2cnc3ccccc3c2)ccc1Cl [compound 436] | – | – | – | – | – | – | – | 87 | 98 | 0 | 81 | 0 | 0 | 0 | –
COc1cc(F)c(-c2c(Cl)nc(Br)n2Cc2ccc(C)cc2)c(F)c1 [compound 292] | – | – | – | – | – | – | – | – | – | – | – | – | – | – | Test C disease control rating ([1]; 200 ppm, 0 = no control): 99%; Test D disease control rating ([2]; 200 ppm, 0 = no control): 98%; Test F disease control rating ([3]; 200 ppm, 0 = no control): 69%; Test G disease control rating ([4]; 200 ppm, 0 = no control): 93%; Test H disease control rating ([5]; 200 ppm, 0 = no control): 11%; Test I disease control rating ([6]; 200 ppm, 0 = no control): 99%; Test J disease control rating ([7]; 200 ppm, 0 = no control): 99%
COc1cc(F)c(-c2c(Br)ncn2-c2ccc(C)nc2)c(F)c1 [compound 555] | – | – | – | – | – | – | – | 100 | 99 | 69 | 98 | 0 | 100 | 98 | –
Cc1ccc(-n2c(C)nc(Cl)c2-c2c(F)cc(OC(F)F)cc2F)cc1 [compound 631] | – | – | – | – | – | – | – | 99 | 99 | 0 | 100 | 40 | 99 | 100 | –
Cc1nc(C)n(-c2ccc(F)cc2)c1-c1c(F)cc(F)cc1F [compound 491] | 92* % | 99* % | 0* % | 91* % | 0* % | 0* % | 0* % | – | – | – | – | – | – | – | –
CN(C)c1ccc(-n2cnc(Cl)c2-c2c(F)cccc2F)cc1 [compound 635] | 99* % | 0* % | 0* % | 81* % | 0* % | 39* % | 0* % | – | – | – | – | – | – | – | –
COc1ccc(F)c(-c2c(Cl)nc(Cl)n2-c2ccc(Cl)cc2)c1F [compound 309] | – | – | – | – | – | – | – | 100 | 100 | 100 | 97 | 11 | 100 | 100 | –

— patent US20110045101A1, “FUNGICIDAL SUBSTITUTED AZOLES” (E.I. Du Pont De Nemours and Company, priority 2009, published 2011)
